# Patent US11667663B2, “Cyclic dinucleotides as anticancer agents” (BRISTOL-MYERS SQUIBB COMPANY, priority 2017, dated 2023)
# Like-named read-outs stand apart in the source and are kept apart here.
# Columns and labels:
# [1] = target: T1, STING AQ: His-TVMV-S-hSTING(155-341)-G230A-R293Q (Homo sapiens, UniProt Q86WV6, G230A/H232R/R293Q); assay: STING HTRF competition binding assay, STING AQ; settings: 20 nM His-tagged STING cytoplasmic domain AQ, 40 nM fluorescein-labeled cGAMP analog probe, one hour; read-out: HTRF Binding Assays IC50 AQ
# T1 construct: STING AQ: His-TVMV-S-hSTING(155-341)-G230A-R293Q
# Experimental: (§1) Sting HTRF Binding Assays
# (§2) A time resolved FRET-based competition binding assay was used to assess test article binding to STING WT and STING AQ. His-tagged STING cytoplasmic domain (WT or AQ) at a concentration of 20 nM was incubated with 2.5 nM Tb-labeled anti-His antibody, test compound, and fluorescein-labeled cGAMP analog probe (BioLog cat. no. C195) at a concentration of 200 nM (STING WT) or 40 nM (STING AQ) in PBS containing 0.005% Tween-20 and 0.1% BSA for one hour. Fluorescence at 495 nm and 520 nm was measured using an EnVision microplate reader to quantify FRET between Tb-labeled anti-His antibody and fluorescein-labeled probe. Background was defined as the signal obtained in the absence of STING protein, and background subtracted FRET ratios were normalized to the maximum signal obtained in the absence of test compound. These values were converted to a percent inhibition. Percent inhibition was determined for test compounds at 11 concentrations. The IC50, defined as the concentration of competing test compound needed to reduce specific binding of the probe by 50%, was calculated using the 4 parameter logistic equation to fit the data
# [2] = target: T2, STING WT: His-TVMV-S-hSTING(155-341)-H232R (Homo sapiens, UniProt Q86WV6, H232R); assay: STING HTRF competition binding assay, STING WT; settings: 20 nM His-tagged STING cytoplasmic domain WT, 200 nM fluorescein-labeled cGAMP analog probe, one hour; read-out: HTRF Binding Assays IC50 WT
# T2 construct: STING WT: His-TVMV-S-hSTING(155-341)-H232R
# Experimental: as §1, §2
# NF-κB pathway = assay: STING THP1 reporter assay, NF-κB pathway (SEAP); format: cell-based; settings: THP1-Dual cells, 10% human plasma, SEAP readout, 100% = 100 μM cGAMP, read-out: THP1 Reporter Assays EC50 NFkB
# Description: (§3) STING THP1 Reporter Assay Protocol
# (§4) THP1-Dual™ cells were derived from the human THP-1 monocyte cell line by stable integration of two inducible reporter constructs. To this end, THP1-Dual™ cells allow the simultaneous study of the NF-κB pathway, by monitoring the activity of SEAP, and the IRF pathway by assessing the activity of a secreted luciferase (Lucia). Both reporter proteins are readily measurable in the cell culture supernatant when using QUANTI-Blue™, a SEAP detection reagent, and QUANTI-Luc™, a luciferase detection reagent.
# (§5) THP1-Dual™ cells induce the activation of NF-κB in response to STING agonists. They also trigger the IRF pathway upon stimulation with STING agonists, such as cGAMP. Here, the THP-1-Dual cells were used to assess STING binders for function on the cellular level.
# (§6) Serial dilutions of compounds in DMSO were added to low volume 384 well plates at 100 nl/well using an ECHO acoustic dispenser (Labcyte, model 550) to achieve final starting concentration of 100 μM in cell suspension. THP-1 Dual™ STING reporter cells (Invivogen, Dual cells cat #THPD-nfis) were added to the plates with compounds at 15,000 cells in 10 μL per well in RPMI media (Gibco, cat #11875) containing 10% human plasma in a low volume 384-well black wall clear bottom tissue culture plate (Corning, cat #3542) for SEAP assay and low volume solid white plate (Corning, cat #3826) for luciferase assay. One column of the plate was reserved for treatment with cGAMP at 100 μM for 100% activation calculation and one column for no treatment (DMSO only) for baseline activation. Plates were then incubated in 37 OC incubator at 5% CO2 for 20 hours.
# (§7) In the SEAP assay, 5 μl of 2× QuantiBlue (Invivogen, cat #Rep-qb2) is added to 384 well black plates seeded with THP1 cells and incubated at 37° C. for 2 hours. Plates were read on the Envision (Perkin Elmer) at 620 nm wavelength (OD620). In the luciferase assay, 5 μl of Quantiluc (Invivogen, Rep-qlc2) is added to white 384 well plates seeded with THP1 cells and read at 5 minutes on the Envision (Perkin Elmer) using a luminescence protocol (RLU). For both cell lines, 100% activation was determined by value (RLU) of THP-1 Dual STING cells stimulated with 100 μM cGAMP (Invivogen, cat #TLRL-NACGA23-5).
# IRF pathway = assay: STING THP1 reporter assay, IRF pathway (Lucia luciferase); format: cell-based; settings: THP1-Dual cells, 10% human plasma, luciferase readout, 100% = 100 μM cGAMP, read-out: THP1 Reporter Assays EC50 IRF3
# Description: as §3, §4, §5, §6, §7
# T1 sequence (Q86WV6 with tags, fused parts or gaps G230A/H232R/R293Q): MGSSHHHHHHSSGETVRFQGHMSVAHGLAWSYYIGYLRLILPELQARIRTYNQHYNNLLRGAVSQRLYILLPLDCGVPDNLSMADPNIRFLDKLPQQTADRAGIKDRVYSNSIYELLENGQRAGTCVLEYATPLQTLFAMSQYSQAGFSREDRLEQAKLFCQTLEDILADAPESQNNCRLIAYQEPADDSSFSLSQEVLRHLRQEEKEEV
# T2 sequence (Q86WV6 with tags, fused parts or gaps H232R): as the sequence (Q86WV6 with tags, fused parts or gaps G230A/H232R/R293Q) above, with A99G, Q162R counted along it
IC50 [1] [nM],IC50 [2] [nM],EC50 (NF-κB pathway; 20 hours) [nM],EC50 (IRF pathway; 20 hours) [nM],"EC50 (NF-κB pathway; Homo sapiens, THP-1, 20 h) [nM]","EC50 (IRF pathway; Homo sapiens, THP-1, 20 h) [nM]",Structure (SMILES)
10,50,6800,4000,–,–,"NC(=O)c1cc([C@@H]2O[C@@H]3COP(=O)(S)O[C@H]4[C@@H](F)[C@H](n5cnc6c(N)ncnc65)O[C@@H]4COP(=O)(S)O[C@@H]2[C@@H]3O)[nH]n1 (single isomer, unassigned) [Example 1-3]"
40,680,–,–,> 100000,> 100000,NC(=O)c1cc([C@@H]2O[C@@H]3COP(O)(=S)O[C@H]4[C@@H](F)[C@H](n5cnc6c(N)ncnc65)O[C@@H]4COP(O)(=S)O[C@@H]2[C@@H]3O)[nH]n1 (stereo partly shown) [Example 1-4]
90,2400,> 100000,> 100000,–,–,"NC(=O)c1cc([C@@H]2O[C@@H]3COP(=O)(S)O[C@H]4[C@@H](F)[C@H](n5cnc6c(N)ncnc65)O[C@@H]4COP(=O)(S)O[C@@H]2[C@@H]3O)[nH]n1 (single isomer, unassigned) [Example 1-1]"
30,910,> 100000,> 100000,–,–,"NC(=O)c1cc([C@@H]2O[C@@H]3COP(=O)(S)O[C@H]4[C@@H](F)[C@H](n5cnc6c(N)ncnc65)O[C@@H]4COP(=O)(S)O[C@@H]2[C@@H]3O)[nH]n1 (single isomer, unassigned) [Example 1-2]"
